Results as given in article PMC11139883, “Functional and structural dissection of glycosyltransferases underlying the glycodiversity of wolfberry-derived bioactive ingredients lycibarbarspermidines” (Nature Communications, 2024).

Legend:
Experiment in all cases: LC-MS product assay, Michaelis-Menten fit
Assay type in all cases: biochemical, Lycium barbarum
Settings in all cases: 2.5 mM UDP-Glc, 1 mM MgCl2, 10 mM HEPES pH 7.0, 30 °C
[1] = test system: T1, LbUGT3
T1 construct: full length (482 residues by printed domain borders); GST fusion (pGEX-2TK) from E. coli Rosetta (DE3) for assays; crystal protein with GST-His tag removed by TEV
Source text: LC-MS product assay, Michaelis-Menten fit on LbUGT3

[2] = test system: T2, LbUGT4
T2 construct: full length; GST fusion (pGEX-2TK) from E. coli Rosetta (DE3)
Source text: LC-MS product assay, Michaelis-Menten fit on LbUGT4

[3] = test system: T3, LbUGT2
T3 construct: full length; GST fusion (pGEX-2TK) from E. coli Rosetta (DE3)
Source text: LC-MS product assay, Michaelis-Menten fit on LbUGT2

[4] = substrate: O=C(/C=C/c1ccc(O)c(O)c1)NCCCNCCCCNC(=O)CCc1ccc(O)c(O)c1
Source text: LC-MS product assay, Michaelis-Menten fit on LbUGT1

Row | Molecule | Km [1] [µM] | Km [2] [µM] | Km [3] [µM] | Km [4] [µM] | kcat [4] [s⁻¹] | kcat/Km [4] [M⁻¹ s⁻¹]
1 | O=C(/C=C/c1ccc(O)c(O)c1)NCCCNCCCCNC(=O)CCc1ccc(O)c(O)c1 [compound 1, N^1-caffeoyl-N^10-dihydrocaffeoylspermidine] | 325 | 901 | 762 | – | – | –
2 | LbUGT1 (Lycium barbarum) (protein, full length (485 residues by printed domain borders); GST fusion (pGEX-2TK) from E. coli Rosetta (DE3) for assays; crystal protein with MBP-His tag removed by TEV) LTTKAELVFIPSPGAGHLISAIEIAKLILNRDERLCISVLIMKLPMDFGVQSYVASLSSSPRLQFVDITLDEKTVAGLLKNKESFFTDFIQGHKPKVKDFIHNTSFSKSGSGFSRLAGFVLDMFCTSMIDVASEFSVPSYIFLTSNAAFLALCYHFESLKKEHHIDTSKYKDSDEELTIPGFKNPYPGKFLPRLTTDQTTATTLFFDSVTRFKETKGIMVNTFAELEPFALQSLLVPKIYPVGPVVNFKEGGHGRNSESETESIIKWLDDQPESSVVFLCFGSMGSFDAEQIEEIAVALECSGHRFLWSLRRPPPKGKMELPSNYEDFQEVLPEGFIERTNGVGKVIGWAPQVAVLSHPAVGGFVSHCGWNSVLESLCFGVPIGAWPQYAEQQMNAFELVKQLGLAVEIRMDYFKDFEGKHGPVEIVTAKEIASGIRQLMADGEENEIRKRAKEMKEKSSAAMKEGGSSYASLGLLIEDVISNIS | – | – | – | 259.4 | 0.0057 | 22.1
